Values after ≈ are worked out from the molar mass of the structure shown. Values joined by “and” are separate entries in the source; they are usually repeats but may differ in a detail not shown here. Equal entries are not always repeated. Active and inactive are the calls of the source. The calls are words filed in the database; no cut-off is given here.
Legend:
[1] = target: T1, Thymidylate kinase (Mycobacterium tuberculosis, UniProt P9WKE1); assay: Inhibition of Mycobacterium tuberculosis TMPK
T1 sequence (P9WKE1 whole entry): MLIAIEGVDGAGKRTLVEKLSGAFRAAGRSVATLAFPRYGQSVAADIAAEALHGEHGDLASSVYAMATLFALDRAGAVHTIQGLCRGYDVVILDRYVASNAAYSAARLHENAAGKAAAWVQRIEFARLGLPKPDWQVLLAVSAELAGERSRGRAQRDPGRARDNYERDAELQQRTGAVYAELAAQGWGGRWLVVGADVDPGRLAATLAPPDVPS

[2] = test system: Mycobacterium tuberculosis; assay: Antibacterial activity against drug-sensitive Mycobacterium tuberculosis assessed as inhibition of bacterial growth; type: functional
[3] = Inhibition of Mycobacterium tuberculosis salicylate synthase using chorismic acid as substrate in presence of MgCl2 by fluorimetric assay
[4] = target: T2, Enoyl-[acyl-carrier-protein] reductase [NADH] (Mycobacterium tuberculosis, UniProt P9WGR1); assay: Inhibition of Mycobacterium tuberculosis InhA
T2 sequence (P9WGR1 whole entry): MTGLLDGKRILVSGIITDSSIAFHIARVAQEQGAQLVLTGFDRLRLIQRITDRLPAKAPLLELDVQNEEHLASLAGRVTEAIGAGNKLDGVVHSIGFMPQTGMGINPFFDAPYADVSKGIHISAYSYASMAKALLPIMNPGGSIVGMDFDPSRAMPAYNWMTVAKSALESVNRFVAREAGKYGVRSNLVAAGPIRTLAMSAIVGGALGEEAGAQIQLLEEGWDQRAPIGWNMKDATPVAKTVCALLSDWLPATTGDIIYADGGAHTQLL

[5] = test system: Mycobacterium tuberculosis; assay: Antibacterial activity against Mycobacterium tuberculosis H37Rv assessed as inhibition of bacterial growth; type: functional, organism-based
[6] = test system: Mycobacterium tuberculosis; assay: Antibacterial activity against Mycobacterium tuberculosis H37Rv assessed as bacterial growth inhibition at less than 6.25 ug/ml relative to control; type: functional; conditions: read-out: GI
[7] = test system: Mycobacterium tuberculosis; assay: Antibacterial activity against Mycobacterium tuberculosis H37Rv assessed as inhibition of bacterial growth by microplate alamar blue assay; type: functional
[8] = Microsomal stability in human liver microsomes assessed as half life at 0.1 uM incubated for 60 mins in presence of NADPH by LC-MS/MS analysis; type: ADME, Microsome
[9] = test system: Mycobacterium tuberculosis; assay: Antibacterial activity against Mycobacterium tuberculosis H37Rv ATCC 27294 assessed as inhibition of bacterial growth; type: functional
[10] = test system: Mycobacterium tuberculosis; assay: Antibacterial activity against Mycobacterium tuberculosis H37Ra assessed as inhibition of bacterial growth; type: functional
[11] = target: T3, Pantothenate synthetase (Mycobacterium tuberculosis, UniProt P9WIL5); assay: Inhibition of Mycobacterium tuberculosis H37Ra pantothenate synthetase
T3 sequence (P9WIL5 whole entry): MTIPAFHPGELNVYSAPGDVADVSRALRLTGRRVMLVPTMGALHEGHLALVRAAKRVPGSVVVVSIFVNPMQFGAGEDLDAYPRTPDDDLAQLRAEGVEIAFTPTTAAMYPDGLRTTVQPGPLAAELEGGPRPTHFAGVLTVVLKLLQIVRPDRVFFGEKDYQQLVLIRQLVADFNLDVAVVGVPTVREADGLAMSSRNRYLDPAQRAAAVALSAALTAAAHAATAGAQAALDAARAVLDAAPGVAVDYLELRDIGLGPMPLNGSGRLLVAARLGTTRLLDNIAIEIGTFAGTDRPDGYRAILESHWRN

[12] = test system: Mycobacterium tuberculosis; assay: Antibacterial activity against Mycobacterium tuberculosis H37Rv assessed as inhibition of bacterial growth by resazurin dye based colorimetric analysis; type: functional, organism-based
[13] = test system: Mycobacterium tuberculosis; assay: Antibacterial activity against Mycobacterium tuberculosis assessed as inhibition of bacterial growth; type: functional, organism-based
[14] = test system: Mycobacterium tuberculosis; assay: Antibacterial activity against Mycobacterium tuberculosis H37Rv assessed as inhibition of bacterial growth by broth microdilution assay; type: functional
[15] = test system: Staphylococcus aureus; assay: Antibacterial activity against methicillin-resistant Staphylococcus aureus 693E assessed as inhibition of bacterial growth by broth microdilution assay; type: functional
[16] = test system: Mycobacterium tuberculosis; assay: Antibacterial activity against wild-type Mycobacterium tuberculosis H37Rv assessed as inhibition of bacterial growth; type: functional
[17] = test system: RAW264.7; assay: Cytotoxicity against mouse RAW264.7 cells assessed as cell growth inhibition by MTT assay relative to control; type: functional
[18] = test system: Mycobacterium tuberculosis; assay: Antibacterial activity against drug susceptible Mycobacterium tuberculosis H37Rv assessed as inhibition of bacterial growth; type: functional
[19] = test system: Mycobacterium tuberculosis; assay: Inhibition of Mycobacterium tuberculosis H37Rv mc2 6206 HadB/C expressed in Escherichia coli using trans-2-hexadecenoyl-coenzyme A as substrate by spectrophotometric analysis
[20] = Inhibition of Mycobacterium tuberculosis H37Rv mc2 6206 HadA/B expressed in Escherichia coli using trans-2-hexadecenoyl-coenzyme A as substrate by spectrophotometric analysis
[21] = test system: Mycobacterium tuberculosis; assay: Antibacterial activity against Mycobacterium tuberculosis assessed as inhibition of bacterial growth by microplate alamar blue assay; type: functional
[22] = Cytotoxicity against human WI-38 cells assessed as inhibition of cell growth by MTT assay; type: toxicity, cell-based
[23] = target: DNA gyrase (Escherichia coli, UniProt P0AES4+P0AES6); assay: Inhibition of Escherichia coli DNA gyrase; type: protein-complex assay
[24] = Cytotoxicity against African green monkey Vero cells assessed as inhibition of cell growth; type: toxicity, cell-based; conditions: African green monkey (Chlorocebus sabaeus)
[25] = test system: Mycobacterium tuberculosis; assay: Antibacterial activity against Mycobacterium tuberculosis H37Rv infected in Macrophage assessed as reduction in bacterial growth; type: functional
[26] = Selectivity index, ratio of IC50 for cytotoxicity against African green monkey Vero cells to MIC for antibacterial activity against Mycobacterium tuberculosis H37Rv; type: toxicity, cell-based; conditions: read-out: Selectivity Index

Cc1cn([C@H]2C[C@H](O)[C@@H](COP(=O)(O)O)O2)c(=O)[nH]c1=O [THYMIDINE MONOPHOSPHATE]
IC50 [1]: 0.07 µM

CC(=O)c1ccc(N2CN=c3s/c(=C/c4ccco4)c(=O)n3C2)cc1
MIC [2]: 2.49 mg/L (≈ 7.05 µM)

N#Cc1cc(OCCOc2ccccc2)cc(-c2ccc(C(=O)O)o2)c1
IC50 [3]: 12.1 µM

COc1ccc(-c2nn(-c3ccc([N+](=O)[O-])cc3[N+](=O)[O-])c(N)c2C#N)cc1Oc1cccc(Br)c1C#N
MIC [2]: 0.98 mg/L (≈ 1.7 µM)
IC50 [4]: 0.29 µM

Cc1ccc(C(=O)C2[C@H]3CCCN3[C@]3(C(=O)Nc4ccccc43)C23c2ccccc2-n2c3nc3ccccc3c2=O)cc1 (stereo partly drawn)
MIC [5]: 1.56 mg/L

Cc1cc(C(=O)N2CCN(c3nc(=O)c4cc(Cl)cc([N+](=O)[O-])c4s3)CC2)c2cc(Cl)ccc2n1
MIC [5]: 0.06 mg/L

Cc1cc(C(=O)N2CCN(c3nc(=O)c4cc(Cl)cc([N+](=O)[O-])c4s3)CC2)c2cc(Br)ccc2n1
MIC [5]: 0.06 mg/L

Cc1cc(C(=O)N2CCN(c3nc(=O)c4cc(F)cc([N+](=O)[O-])c4s3)CC2)c2cc(Br)ccc2n1
MIC [5]: 0.06 mg/L

C[C@H]1S[C@]2(CC[C@@H](c3ccccc3)CC2)N(NC(=O)[C@@H](O)c2ccccc2)C1=O
MIC [5]: < 6.25 mg/L
inhibition of growth at 6.25 µg/mL [6]: 98%

CCOC(=O)Cc1csc(N2C(=O)CSC2c2ccc(Br)cc2)n1 (stereo not drawn)
MIC [2]: 0.48 mg/L (≈ 1.12 µM)
IC50 [4]: 1.06 µM

CC(C)(C)OC(=O)N1CCN(c2ccc(N3C[C@H](CNC(=O)c4ccc([N+](=O)[O-])o4)OC3=O)cc2F)CC1
MIC [5]: 2.34 mg/L

CC(=O)c1c(C)n(-c2ccc(C3CCNCC3)cc2)c2ccc(O)c(CN3CCCCC3)c12
MIC [7]: 0.125 mg/L
half-life at 0.1 µM [8]: 58 min

O=C1Nc2ccccc2/C1=N\OCc1cn(Cc2ccc(F)cc2)nn1
MIC [9]: 0.78 mg/L (≈ 2.22 µM)

Cc1cc(C(=O)N2CCN(c3nc(=O)c4cc(Br)cc([N+](=O)[O-])c4s3)CC2)c2cc(Cl)ccc2n1
MIC [5]: 0.12 mg/L

Cc1nc2sc3ccccc3n2c1C(=O)N1CCN(Cc2cn(-c3ccc(Cl)cc3Cl)nn2)CC1
IC90 [10]: 15.2 µM
IC50 [11]: 2.03 µM
IC50 [12]: 1.6 mg/L (≈ 3.04 µM)

Cc1cc(C(=O)N2CCN(c3nc(=O)c4cc(Br)cc([N+](=O)[O-])c4s3)CC2)c2cc(Br)ccc2n1
MIC [5]: 0.12 mg/L

CC(=O)NC[C@H]1CN(c2ccc(N3CCOCC3)c(F)c2)C(=O)O1 [LINEZOLID]
MIC [5]: 1 mg/L

O=C(/C=C/c1ccccc1)c1ccc(Br)cc1
MIC [7]: 6.25 mg/L

C/C(=N\N=C(\N/N=C(\C)c1ccc(Cl)cc1)NC(=S)Nc1cccc2ccccc12)c1ccc(Cl)cc1
MIC [5]: 0.78 µM

CCCCCCc1ccc(-c2cn(CC(=O)Cn3ccnc3[N+](=O)[O-])nn2)cc1
MIC [5]: 65.3 µM

NNC(=O)c1ccncc1 [ISONIAZID]
MIC [5]: 15.6 mg/L
MIC [7]: 1.6 mg/L
IC50 [12]: 1.6 mg/L (≈ 11.7 µM)

CC(=O)c1c(C)n(-c2ccc(-c3ccccc3)cc2)c2ccc(O)c(CN3CCCCC3)c12
MIC [7]: 0.063 mg/L
half-life at 0.1 µM [8]: 20.7 min

O=C(/C=C/c1cccc(Oc2ccccc2)c1)c1ccc(Br)cc1
MIC [7]: 6.25 mg/L

Cc1cc(N=Nc2ccc(O)cc2O)ccc1C(C)C
IC50 [13]: 0.62 µM

Cc1cc(C(=O)N2CCN(c3nc(=O)c4cc(C(F)(F)F)cc([N+](=O)[O-])c4s3)CC2)c2cc(Cl)ccc2n1
MIC [5]: 0.12 mg/L

O=C(Nc1ccc(C(=O)O)c(O)c1)c1cncc(Cl)n1
MIC [5]: 3.13 mg/L

O=C(/C=C/c1ccccc1[N+](=O)[O-])c1ccc(Br)cc1
MIC [7]: 6.25 mg/L

C/C(=N\NC(=S)Nc1cccc(Cl)c1Cl)c1nc2cc([N+](=O)[O-])ccc2[nH]1
MIC [5]: 62.5 mg/L

O=c1/c(=C\c2ccc(Cl)cc2)sc2n1CN(C1=NS(=O)(=O)c3ccccc31)CN=2
MIC [2]: 2.28 mg/L (≈ 5.12 µM)

CO[C@H]1/C=C/O[C@@]2(C)Oc3c(C)c(O)c4c(O)c(c(/C=N/N5CCN(C)CC5)c(O)c4c3C2=O)NC(=O)/C(C)=C\C=C\[C@H](C)[C@H](O)[C@@H](C)[C@@H](O)[C@@H](C)[C@H](OC(C)=O)[C@@H]1C [RIFAMPIN]
MIC [5]: 0.97 mg/L

CO[C@H]1C[C@@]2(C)C=C[C@H]3[C@H]4O[C@]2(/C(C)=C/[C@@H](C)[C@@H]([C@@H](C)O)OC1=O)[C@@H]3[C@H](O)[C@@H](C)[C@H]4OC(=O)c1ccc[nH]1
MIC [14]: 12.5 µM (≈ 6.62 µg/mL)
MIC [15]: 0.6 µM (≈ 0.318 µg/mL)

CC(C)/N=c1\cc2n(-c3ccccc3)c3ccccc3nc-2cc1Nc1ccc(N2CCN(C)CC2)c(F)c1
MIC [5]: 0.625 mg/L
MIC [16]: 0.08 mg/L (≈ 0.154 µM)

CC[C@@H](CO)NCCN[C@@H](CC)CO [ETHAMBUTOL]
MIC [7]: 7.64 µM and 1.6 µg/mL

Cc1cc(C(=O)N2CCN(c3nc(=O)c4cc(C(F)(F)F)cc([N+](=O)[O-])c4s3)CC2)c2cc(Br)ccc2n1
MIC [5]: 0.12 mg/L

O=C(c1ccc(Cl)cc1)C1[C@H]2CCCN2[C@]2(C(=O)Nc3ccc(Cl)cc32)C12c1ccccc1-n1c2nc2ccccc2c1=O (stereo partly drawn)
MIC [5]: 1.56 mg/L

CN1CCN(C(=O)c2cc3ccccc3[nH]2)CC1
MIC [7]: 3.12 mg/L
growth inhibition (GI) [17]: 32%

O=C(/C=C/c1cc(Cl)ccc1O)c1ccc(Br)cc1
MIC [7]: 6.25 mg/L

COC(=O)c1cc(-c2ccc(OC)c(NC(=O)c3cc(-c4cccc(Cl)c4)nc4ccccc34)c2)on1
MIC [18]: 0.12 mg/L (≈ 0.233 µM)

CS(=O)(=O)NC(=O)CCc1cn(-c2ccc(Br)cc2)nc1-c1ccc(Cl)cc1
inhibition [19]: inactive
IC50 [20]: 0.13 µM

COc1ccc(NC(=O)CCCCCN/C(C)=C2/C(=O)C=C3Oc4c(C(C)=O)c(O)c(C)c(O)c4[C@]3(C)C2=O)cc1OC
MIC [5]: 5.3 µM

O=C(N/N=C1\C(=O)N(Cc2ccccc2)c2ccccc21)c1cnc2cc(Cl)ccc2c1O
MIC [21]: 0.06 mg/L (≈ 0.131 µM)
IC50 [22]: 36.6 µM

Clc1ccc(Cn2cc(COc3ccc(C4=NCCO4)cc3)nn2)cc1
IC50 [5]: 1.6 µM
IC50 [23]: 0.083 µM

O=C1C(Cl)=C(Cl)C2(OC(c3c(Cl)cccc3Cl)=NN2c2ccccc2)c2ccccc21 (stereo not drawn)
MIC [5]: 15.6 mg/L

CC1/C(=N\NC(N)=[Se])Nc2ccccc21 (stereo not drawn)
MIC [7]: 1.6 mg/L

CCOC(=O)Cc1csc(N2C(=O)CSC2c2ccc(OC)cc2)n1 (stereo not drawn)
MIC [2]: 0.12 mg/L (≈ 0.317 µM)
IC50 [4]: 1.3 µM

Cc1nc2cc(C(F)(F)F)ccc2n1-c1ncc(C(F)(F)F)s1
MIC [5]: 0.28 µM

CCOC(=O)C1=C(C)NC(=O)NC1c1ccccc1OCc1cn(CC(=O)c2ccc(Cl)cc2)nn1 (stereo not drawn)
MIC [7]: 6.13 µM

CS(=O)(=O)N1CCN(c2ccc(N3C[C@H](CNC(=O)c4ccc([N+](=O)[O-])o4)OC3=O)cc2F)CC1
MIC [5]: 1.1 mg/L

O=C1C(C#Cc2ccccc2)=C(c2ccc(C(F)(F)F)cc2)C(=O)N1Cc1ccccn1
MIC [5]: 0.92 mg/L
IC50 [24]: > 64 mg/L
Activity [25]: 0.47 log10CFU
selectivity ratio [26]: 69.6

From ChEMBL document CHEMBL5365393, “Comprehensive coverage on anti-mycobacterial endeavour reported during 2022” (Eur J Med Chem, 2023)
